For 24 compounds, GI50 and TGI results are on record in PubChem BioAssay (NCI).

Some test systems named below: BT-549 breast; DLD-1 colon; DMS 273 small cell lung; HOP-18 NSCLC; LXFL 529 NSCLC; SNB-78 CNS; XF 498 CNS; MDA-N; RXF-631 renal.
Assay in all cases: growth of human tumour cells (NCI), 48 h

“And” between values parts separate entries of the source, which are not always exact repeats. Equal values may be shown once.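 Values below derive from 48-hour exposures of cells grown in 96-well plates, with endpoints linearly interpolated between the two concentrations bracketing the appropriate inhibition level. The concentration for 50% growth inhibition is given as GI50. At the TGI there is no net growth.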 A value given as a limit tells only on which side of the number the result lay.

For `COc1cc(-c2nn(-c3ccc(NC(=O)Nc4ccc(Cl)c(Cl)c4)cc3)cc2-c2ccncc2)ccc1Cl`, in the assay with BT-549 breast, the GI50 is 3.35 µM and the TGI came to 11.2 µM.

Turning to `NC(N)=NS(=O)(=O)c1ccc(Nc2c3ccccc3nc3c(C(=O)N4CCN(CCO)CC4)cccc23)cc1`, the TGI with DLD-1 colon, with DMS 273 small cell lung, with HOP-18 NSCLC, in the assay with LXFL 529 NSCLC, in the assay on SNB-78 CNS and in the assay with XF 498 CNS was over 100 µM in each case.

As to `N#CCCN(CCC#N)C(=O)c1cccc(C(=O)N(CCC#N)CCC#N)c1`, the TGI in the assay with DLD-1 colon was over 100 µM; in the assay on DMS 273 small cell lung it was over 100 µM; with LXFL 529 NSCLC, 19.2 µM; with SNB-78 CNS it was over 100 µM; in the assay on XF 498 CNS, over 100 µM.

Turning to `COC(=O)CCC(C)[C@H]1CCC2C3C(C[C@H](OC(C)=O)[C@@]21C)[C@@]1(C)CCC2(C[C@H]1C[C@H]3OC(C)=O)OOC1(CCC(C)CC1)OO2` (stereo not given in full), the GI50 in the assay on BT-549 breast is 6.42 µM and 57 µM. For the same compound, the TGI in the assay with BT-549 breast and in the assay with MDA-N was over 100 µM each time.

Turning to `COc1cc(NS(C)(=O)=O)ccc1Nc1c2ccccc2nc2c(C)cccc12`, in the assay with BT-549 breast, the GI50 was 0.412 µM and 0.394 µM; the TGI was 4.62 µM and 2.86 µM.

Regarding `COc1ccc(C[n+]2c3ccccc3n3c4ccc(N)cc4ccc32)c(OC)c1OC`, in the assay on BT-549 breast, the GI50 is 2.42 µM and the TGI is 16.5 µM.

For the compound `CC1=CC[C@@H]2C(C)(C)C(=O)CC[C@@]2(C)[C@@H]1COc1ccc2ccc(=O)oc2c1`, in the assay with BT-549 breast, the GI50 was 4.37 µM and the TGI turned out to be 22.5 µM.

In the case of `Cc1csc(/C=N/NC(=O)c2nnn(-c3ccnc4c(C(F)(F)F)cccc34)c2C)c1`, in the assay with BT-549 breast, the GI50 is over 100 µM and the TGI was over 100 µM.

For `COc1ccc(CN2C(=O)C(Cc3cc(OC)c(OC)c(C)c3OC)NC(=O)/C2=C/c2cc(OC)c(OC)c(C)c2OC)cc1` (stereo not given), the TGI in the assay with DLD-1 colon was over 100 µM; in the assay with HOP-18 NSCLC, 65.2 µM; with LXFL 529 NSCLC, over 100 µM; in the assay on RXF-631 renal, over 100 µM.

In the case of `CN(CCC#N)c1ccc(/C=C(\C#N)c2cccc(C(F)(F)F)c2)cc1`, in the assay with BT-549 breast, the GI50 was 3.28 µM and the TGI came out at 34.3 µM.

With `COc1cc2ccccc2c2cc([N+](=O)[O-])oc12`, the TGI with BT-549 breast amounted to 7.16 µM; in the assay on MDA-N, 0.849 µM.

`O=C(/C=C/c1ccccc1)c1c[nH]c2ccccc2c1=O`: in the assay with BT-549 breast, the GI50 was 4.84 µM and the TGI stood at 17.8 µM.

Take `CC(=O)[CH-]C(=O)c1ccccc1.CC(=O)[CH-]C(=O)c1ccccc1.COc1cccc([O-])c1[O-].[Ti+4]`: the GI50 with DLD-1 colon is 69.2 µM; in the assay on HOP-18 NSCLC, 25.9 µM; in the assay on LXFL 529 NSCLC, 34.3 µM. The TGI with DLD-1 colon is over 100 µM; with HOP-18 NSCLC it was 63.5 µM; with LXFL 529 NSCLC it was over 100 µM.

Consider `COc1cc([N+](=O)[O-])c(S(=O)(=O)O)cc1NS(=O)(=O)c1ccc(C)cc1`, for which the TGI with BT-549 breast and with MDA-N was over 100 µM each time.

As for `COc1ccc2c(c1)[C@]1(C[C@H]1c1ccc3c(/C=C/c4ccc(CN5C[C@@H](C)O[C@@H](C)C5)cc4)n[nH]c3c1)C(=O)N2`, in the assay on BT-549 breast, the GI50 was 1.75 µM and the TGI came to 5.29 µM.

On to `NC1=NC(c2ccc(Cl)cc2)N(c2ccc(S(=O)(=O)Nc3ncccn3)cc2)C(N)=N1` (stereo not given), for which the TGI in the assay with BT-549 breast and in the assay on MDA-N was over 100 µM in each case.

With `[C-]#[O+].[Cl][Sn]([Cl])[Cl].[Cl][Sn]([Cl])[Cl].[Pt].c1ccc([PH+](c2ccccc2)c2ccccc2)cc1.c1ccc([PH+](c2ccccc2)c2ccccc2)cc1`, the GI50 with DLD-1 colon was 45.5 µM; with DMS 273 small cell lung, 46.1 µM; in the assay on HOP-18 NSCLC it was 25.3 µM; in the assay on LXFL 529 NSCLC it was 23.2 µM; in the assay on SNB-78 CNS, over 100 µM. Besides, the TGI in the assay on DLD-1 colon was over 100 µM; in the assay with DMS 273 small cell lung, over 100 µM; in the assay on HOP-18 NSCLC, 90 µM; in the assay with LXFL 529 NSCLC, 82.1 µM; with SNB-78 CNS, over 100 µM.

For the compound `CCNC(C)(C)C(SS)c1ccc(Br)cc1` (stereo not given), the TGI in the assay on BT-549 breast and in the assay on MDA-N was over 100 µM each time.

For `CN(Cc1cnc(N)nc1N)c1ccc(C(=O)O)cc1`, in the assay on BT-549 breast, the GI50 was over 100 µM and the TGI was over 100 µM.

With `CN(C)c1ccc2c(c1)CN1C(=O)c3ccccc3C1=N2`, the GI50 with DLD-1 colon was over 100 µM; in the assay on DMS 273 small cell lung, over 100 µM; in the assay on HOP-18 NSCLC, 6.02 µM; in the assay with LXFL 529 NSCLC, over 100 µM; with SNB-78 CNS it was over 100 µM; in the assay on XF 498 CNS, over 100 µM. For the same compound, the TGI in the assay with DLD-1 colon, in the assay on DMS 273 small cell lung, in the assay on HOP-18 NSCLC, in the assay with LXFL 529 NSCLC, in the assay on SNB-78 CNS and in the assay with XF 498 CNS was over 100 µM in each case.

As to `Cc1nc2ccccc2c(=O)n1/N=C(\N=Nc1cc(Cl)ccc1Cl)c1cccc(-c2ccco2)c1`, the TGI in the assay with DLD-1 colon, in the assay with DMS 273 small cell lung, with HOP-18 NSCLC and in the assay with RXF-631 renal was over 100 µM in each case.

For `Cn1cc(C2=C(c3c4n(c5ccccc35)CCCC4)C(=O)NC2=O)c2ccccc21`, in the assay with BT-549 breast, the GI50 is over 18.5 µM and the TGI is over 25 µM.

Regarding `Cc1cc2cccnc2c2ncccc12`, in the assay on BT-549 breast, the GI50 was 2.67 µM and the TGI came to 41.9 µM.

On to `CC1(C)C(c2ccccc2)=NN(O)c2ccccc21`, for which the TGI with DLD-1 colon, with DMS 273 small cell lung, with HOP-18 NSCLC, in the assay with LXFL 529 NSCLC and in the assay on SNB-78 CNS was over 100 µM each time.
